Source: ChEMBL document CHEMBL1275353, “4-Phenylcoumarins from Mesua elegans with acetylcholinesterase inhibitory activity” (Bioorg Med Chem, 2010)

Each compound was assayed against Acetylcholinesterase (Electrophorus electricus, UniProt O42275).
Chain of Acetylcholinesterase (O42275 whole entry): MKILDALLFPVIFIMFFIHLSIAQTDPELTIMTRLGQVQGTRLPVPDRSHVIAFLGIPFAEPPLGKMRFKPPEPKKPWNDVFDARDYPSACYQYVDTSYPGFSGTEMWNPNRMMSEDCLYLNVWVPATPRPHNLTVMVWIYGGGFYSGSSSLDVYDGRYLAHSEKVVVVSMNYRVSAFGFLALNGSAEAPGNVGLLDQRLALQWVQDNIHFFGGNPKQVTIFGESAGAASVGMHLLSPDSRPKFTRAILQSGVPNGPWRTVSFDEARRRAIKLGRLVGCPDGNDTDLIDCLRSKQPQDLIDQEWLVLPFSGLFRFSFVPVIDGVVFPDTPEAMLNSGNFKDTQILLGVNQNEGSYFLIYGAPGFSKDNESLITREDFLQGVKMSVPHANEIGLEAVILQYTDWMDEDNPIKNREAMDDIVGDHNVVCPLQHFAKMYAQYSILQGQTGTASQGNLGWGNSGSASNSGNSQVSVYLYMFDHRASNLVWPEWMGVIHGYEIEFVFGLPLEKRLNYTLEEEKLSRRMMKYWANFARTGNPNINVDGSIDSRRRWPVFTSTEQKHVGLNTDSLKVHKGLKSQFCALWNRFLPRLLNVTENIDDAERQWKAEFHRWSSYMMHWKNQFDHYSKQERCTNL
Description: Inhibition of Electrophorus electricus AChE after 120 secs by Ellman spectroscopic method
For `CC(C)=CCC/C(C)=C/Cc1c(O)c(C(=O)CC(C)C)c2oc(=O)cc(-c3ccccc3)c2c1O`, the IC50 was > 20 µM.
In the case of `CCC(C)C(=O)c1c(O)c(C/C=C(\C)CCC=C(C)C)c(O)c2c(-c3ccccc3)cc(=O)oc12` (centres undefined), the IC50 is reported as 3.06 µM.
`CC(C)CC(=O)c1c(O)c2c(c3c(-c4ccccc4)cc(=O)oc13)OC(C(C)(C)O)C2` (centres undefined) was tested, and the IC50 was > 20 µM.
In the case of `CC(C)CC(=O)c1c(O)c2c(c3c(-c4ccccc4)cc(=O)oc13)OC(C)(C)C=C2` [ISOMAMMEIGIN], the IC50 is reported as > 20 µM.
In the case of `CC(C)=CCc1c(O)c(C(=O)CC(C)C)c2oc(=O)cc(-c3ccccc3)c2c1O` [ISOMAMMEISIN], the IC50 is reported as > 20 µM.
`CC(C)=CCCC1(C)C=Cc2c(O)c(C(=O)CC(C)C)c3oc(=O)cc(-c4ccccc4)c3c2O1` (centres undefined) [MESUAGENIN A] was tested, and the IC50 was 1.06 µM.
With `CCC(C)C(=O)c1c(O)c2c(c3c(-c4ccccc4)cc(=O)oc13)OC(C)(CCC=C(C)C)C=C2` (centres undefined) [MESUAGENIN B] the IC50 was 0.7 µM.
For `CC(C)=CCC/C(C)=C/Cc1c(O)c(C(=O)C(C)C)c2oc(=O)cc(-c3ccccc3)c2c1O` [MESUAGENIN C], the IC50 was > 20 µM.
Work on `CC(C)CCC(C)(O)C1(C)Cc2c(O)c(C(=O)CC(C)C)c3oc(=O)cc(-c4ccccc4)c3c2O1` (centres undefined) [MESUAGENIN D] yielded an IC50 of 8.73 µM.
